Measurements: patent publication US9981972B2, “N-hydroxy bicyclic hydantoin carbamates as tools for identification of serine hydrolase targets” (ABIDE THERAPEUTICS, INC., priority 2014, dated 2018)
In brackets after ≈: the same amount, converted by molar mass.

Columns and labels:
[1] = Solubility in media (DMEM+10% FBS); type: physicochemical; details: plasma or biological fluid, kinetic from dmso stock, complete media (DMEM+10% FBS), 22° C., read-out: solubility in DMEM containing 10% serum
Protocol: Solubility in Media: The solubility of compounds were tested in triplicate in complete media (DMEM+10% FBS). Per well, 198 μL PBS is added to a Millipore Solvinert Hydrophilic PTFE 96 well filter plate: pore size: 0.45 μm (MSRLN0450). Test compounds were introduced from 10 mM DMSO stock solutions (2 μL). The final concentration of DMSO was 1 percent. Samples were allowed to incubate at 22° C. for 18 hours. In the morning the plate was centrifuged where the soluble portion passed through the filter and was collected in a capture plate. The samples were analyzed by HPLC (Agilent 1100 with diode-array detector). Peak area was compared to a standard of known concentration.

ABHD6 = target: T1, ABHD6 (Homo sapiens, UniProt Q9BV23); test: Selectivity analysis by ABPP-SILAC, HeLa cells in situ, FP-biotin; type: cell-based; details: 2 h in situ, read-out: inhibition of anti-target ABHD6 (ABPP-SILAC)
T1 construct: endogenous in cells; host or cells: HeLa
T1 sequence (Q9BV23 whole entry): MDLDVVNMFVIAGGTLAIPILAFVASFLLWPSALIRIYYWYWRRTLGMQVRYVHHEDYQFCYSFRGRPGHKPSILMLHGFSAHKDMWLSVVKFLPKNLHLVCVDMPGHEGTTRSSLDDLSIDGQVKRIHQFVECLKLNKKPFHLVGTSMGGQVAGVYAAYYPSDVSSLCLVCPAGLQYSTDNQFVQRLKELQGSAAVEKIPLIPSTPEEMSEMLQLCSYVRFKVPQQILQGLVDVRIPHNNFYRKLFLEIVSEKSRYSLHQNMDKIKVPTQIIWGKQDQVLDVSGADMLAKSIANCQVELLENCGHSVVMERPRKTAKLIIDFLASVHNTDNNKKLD
Description: (§1) Competitive ABPP-SILAC (Adibekian, A., et al. J Am Chem Soc, 2012. 134(25): p. 10345-8) combined competitive ABPP (Leung, D., et al. Nat Biotechnol, 2003. 21(6): p. 687-91) with stable isotope labeling of cells (SILAC) (Ong, S. E., et al. Mol Cell Proteomics, 2002. 1(5): p. 376-86), and allowed for precise quantitation of enzyme inhibition by calculating the isotopic ratios of peptides from inhibitor-treated and control cells.
(§2) Assay Overview: The purpose of this assay was to determine the selectivity profile of powder samples of test compounds using stable isotope labeling with amino acids in cell culture (SILAC) ABPP. In this assay, cultured HeLa cells were metabolically labeled with light or heavy amino acids. Light and heavy cells were treated with inhibitor and DMSO, respectively, in situ. Cells were harvested, and proteome fractions were isolated and reacted with the serine-hydrolase-specific activity-based affinity probe fluorophosphonate-biotin (FP-biotin). Light and heavy samples were combined in a 1:1 (w/w) ratio. Biotinylated proteins were enriched, trypsinized, and analyzed by LC/LC-MS/MS (MudPIT) Inhibition of target and anti-target activity was quantified by comparing intensities of light and heavy peptide peaks. […] Proteins not targeted by inhibitors were expected to have a ratio close to 1.
(§3) Sample Preparation. HeLa cells were initially grown for at least eight passages in either light or heavy SILAC DMEM medium supplemented with 10% dialyzed FCS and 1× PenStrep Glutamine in a humidified incubator (37° C., 5% CO2). Light medium was supplemented with 100 μg/mL L-arginine (Sigma) and 100 μg/mL L-lysine (Sigma). Heavy medium was supplemented with 100 μg/mL [13C615N4]-L-Arginine (Isotek) and 100 μg/mL [13C615N2]-L-Lysine (Isotek). […]
(§4) LC-MS/MS analysis. Samples were analyzed by multidimensional liquid chromatography tandem mass spectrometry (MudPIT) using an Agilent 1200-series quaternary pump and Thermo Scientific LTQ Orbitrap Velos ion trap mass spectrometer. […]

MAGL = target: T2, MAGL (Homo sapiens, UniProt Q99685); test: as above; type: cell-based; details: 2 h in situ
T2 construct: endogenous in cells; host or cells: HeLa
T2 sequence (Q99685 whole entry): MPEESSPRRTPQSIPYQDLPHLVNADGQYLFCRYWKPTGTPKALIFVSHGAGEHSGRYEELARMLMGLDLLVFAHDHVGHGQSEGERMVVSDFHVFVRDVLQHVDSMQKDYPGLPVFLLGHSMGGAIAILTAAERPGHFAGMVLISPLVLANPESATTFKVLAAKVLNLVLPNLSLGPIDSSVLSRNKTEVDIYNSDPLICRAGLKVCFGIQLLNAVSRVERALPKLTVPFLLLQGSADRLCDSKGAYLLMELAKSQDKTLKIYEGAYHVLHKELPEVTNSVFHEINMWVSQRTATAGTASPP
Description: as §1, §2, §3, §4

human LYPLA1/2 = test: as above; type: cell-based; details: 1 μM, 2 h in situ
Description: as §1, §2, §3, §4

## O=C(ON1C(=O)C2CN(C(=O)N3CCOCC3)CCN2C1=O)N1CCC(CCc2ccc(Cl)cc2)CC1 (stereo not shown) [Compound 1, 7-(morpholine-4-carbonyl)-1,3-dioxohexahydroimidazo[1,5-a]pyrazin-2(3H)-yl 4-(4-chloro-phenethyl)piperidine-1-carboxylate]
[1]
  solubility at 18 h: 46 µM (≈ 24.6 µg/mL)
ABHD6
  inhibition at 1 µM: > 90%
MAGL
  inhibition at 1 µM: ~40%
Human LYPLA1/2
  inhibition of human LYPLA1/2 (ABPP-SILAC): > 90%
